Experiments:
[1] = target: T1, ALK tyrosine kinase receptor (Homo sapiens, UniProt Q9UM73); assay: Inhibition of ALK
Target sequence in this assay (Q9UM73 whole entry): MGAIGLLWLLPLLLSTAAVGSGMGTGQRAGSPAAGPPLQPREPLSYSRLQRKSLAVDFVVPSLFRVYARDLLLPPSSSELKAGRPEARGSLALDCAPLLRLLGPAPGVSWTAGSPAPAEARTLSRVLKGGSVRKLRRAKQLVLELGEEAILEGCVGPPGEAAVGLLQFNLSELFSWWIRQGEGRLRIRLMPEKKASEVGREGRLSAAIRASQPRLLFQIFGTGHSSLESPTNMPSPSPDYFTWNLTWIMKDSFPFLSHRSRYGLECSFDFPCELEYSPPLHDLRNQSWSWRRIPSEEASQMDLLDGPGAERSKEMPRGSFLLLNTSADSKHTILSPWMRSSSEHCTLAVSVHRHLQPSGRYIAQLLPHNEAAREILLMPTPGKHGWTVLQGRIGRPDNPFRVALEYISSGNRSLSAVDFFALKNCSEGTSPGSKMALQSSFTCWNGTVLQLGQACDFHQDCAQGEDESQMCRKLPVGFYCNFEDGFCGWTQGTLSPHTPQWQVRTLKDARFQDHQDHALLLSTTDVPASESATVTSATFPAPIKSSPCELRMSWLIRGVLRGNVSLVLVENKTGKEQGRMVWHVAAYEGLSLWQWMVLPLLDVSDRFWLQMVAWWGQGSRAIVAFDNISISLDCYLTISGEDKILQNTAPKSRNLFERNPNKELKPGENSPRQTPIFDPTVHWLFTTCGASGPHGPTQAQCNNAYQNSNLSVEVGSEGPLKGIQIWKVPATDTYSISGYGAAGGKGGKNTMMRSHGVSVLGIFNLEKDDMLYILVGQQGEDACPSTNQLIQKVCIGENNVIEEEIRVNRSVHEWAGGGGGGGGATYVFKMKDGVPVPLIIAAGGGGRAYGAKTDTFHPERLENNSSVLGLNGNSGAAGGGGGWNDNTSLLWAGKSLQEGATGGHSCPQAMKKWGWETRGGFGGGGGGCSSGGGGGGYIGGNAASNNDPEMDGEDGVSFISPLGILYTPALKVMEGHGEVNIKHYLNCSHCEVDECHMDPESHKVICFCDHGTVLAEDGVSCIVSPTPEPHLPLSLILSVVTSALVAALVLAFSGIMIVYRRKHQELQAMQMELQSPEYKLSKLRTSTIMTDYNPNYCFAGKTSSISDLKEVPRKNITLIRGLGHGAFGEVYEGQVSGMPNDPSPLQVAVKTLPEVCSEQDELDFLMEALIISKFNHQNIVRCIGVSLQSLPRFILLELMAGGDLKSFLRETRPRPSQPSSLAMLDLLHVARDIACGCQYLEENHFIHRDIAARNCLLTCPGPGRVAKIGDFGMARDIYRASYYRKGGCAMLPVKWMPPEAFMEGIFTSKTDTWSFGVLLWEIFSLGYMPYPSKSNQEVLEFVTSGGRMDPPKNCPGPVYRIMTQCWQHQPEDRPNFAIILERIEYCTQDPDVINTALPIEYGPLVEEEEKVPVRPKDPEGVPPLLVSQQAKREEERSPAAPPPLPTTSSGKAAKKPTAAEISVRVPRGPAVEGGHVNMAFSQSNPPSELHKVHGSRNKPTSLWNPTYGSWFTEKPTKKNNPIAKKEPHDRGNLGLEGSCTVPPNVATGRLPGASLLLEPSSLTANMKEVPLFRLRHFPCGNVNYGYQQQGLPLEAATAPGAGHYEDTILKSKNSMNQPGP

Insulin receptor = Insulin receptor (Homo sapiens, UniProt P06213); assay: Inhibition of IR
[2] = target: T1, ALK tyrosine kinase receptor; assay: Inhibition of autophosphorylation of NPM-ALK in human Karpas-299 cells; type: cell-based
Target sequence in this assay (Q9UM73 19-1620 limits assumed): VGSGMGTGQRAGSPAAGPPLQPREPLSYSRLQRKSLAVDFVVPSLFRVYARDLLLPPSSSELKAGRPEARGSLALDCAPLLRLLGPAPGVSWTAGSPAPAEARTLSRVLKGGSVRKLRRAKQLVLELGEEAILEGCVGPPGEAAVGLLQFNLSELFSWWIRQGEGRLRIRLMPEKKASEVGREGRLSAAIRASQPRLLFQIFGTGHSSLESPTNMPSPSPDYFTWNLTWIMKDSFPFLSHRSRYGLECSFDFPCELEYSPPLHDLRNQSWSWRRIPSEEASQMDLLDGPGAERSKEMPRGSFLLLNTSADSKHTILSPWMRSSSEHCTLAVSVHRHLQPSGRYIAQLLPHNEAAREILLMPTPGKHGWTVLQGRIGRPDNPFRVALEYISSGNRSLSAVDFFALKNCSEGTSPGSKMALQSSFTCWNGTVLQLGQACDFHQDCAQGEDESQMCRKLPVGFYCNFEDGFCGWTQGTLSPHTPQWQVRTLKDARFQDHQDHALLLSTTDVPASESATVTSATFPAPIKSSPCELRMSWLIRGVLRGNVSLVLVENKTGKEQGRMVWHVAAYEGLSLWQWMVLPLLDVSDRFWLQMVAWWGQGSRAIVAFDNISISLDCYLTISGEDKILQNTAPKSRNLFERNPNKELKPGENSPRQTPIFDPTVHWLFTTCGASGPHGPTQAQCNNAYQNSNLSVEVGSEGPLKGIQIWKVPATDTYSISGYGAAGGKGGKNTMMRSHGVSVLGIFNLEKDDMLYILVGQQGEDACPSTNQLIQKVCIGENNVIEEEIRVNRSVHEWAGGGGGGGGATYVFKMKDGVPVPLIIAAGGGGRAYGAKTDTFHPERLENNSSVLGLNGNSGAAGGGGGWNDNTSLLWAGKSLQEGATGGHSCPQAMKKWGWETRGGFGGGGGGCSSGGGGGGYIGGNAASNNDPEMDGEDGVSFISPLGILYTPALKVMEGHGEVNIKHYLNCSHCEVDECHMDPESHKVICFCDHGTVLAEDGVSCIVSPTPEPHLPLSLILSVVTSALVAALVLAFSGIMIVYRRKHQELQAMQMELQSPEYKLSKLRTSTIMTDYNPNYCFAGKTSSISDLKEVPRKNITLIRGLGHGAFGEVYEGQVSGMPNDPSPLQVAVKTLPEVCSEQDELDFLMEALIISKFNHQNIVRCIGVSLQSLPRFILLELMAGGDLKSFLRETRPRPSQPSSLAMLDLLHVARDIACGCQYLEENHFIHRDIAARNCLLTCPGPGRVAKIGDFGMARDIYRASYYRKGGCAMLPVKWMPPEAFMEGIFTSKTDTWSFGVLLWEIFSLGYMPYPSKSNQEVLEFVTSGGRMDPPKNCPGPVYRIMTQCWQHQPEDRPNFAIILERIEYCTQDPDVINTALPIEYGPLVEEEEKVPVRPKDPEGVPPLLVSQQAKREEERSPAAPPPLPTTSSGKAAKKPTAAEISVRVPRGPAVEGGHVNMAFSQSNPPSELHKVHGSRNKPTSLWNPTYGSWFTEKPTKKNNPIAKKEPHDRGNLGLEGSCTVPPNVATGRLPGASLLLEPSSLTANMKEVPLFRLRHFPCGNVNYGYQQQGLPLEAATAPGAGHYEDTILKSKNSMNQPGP

Chain of Insulin receptor (P06213 28-758 limits assumed): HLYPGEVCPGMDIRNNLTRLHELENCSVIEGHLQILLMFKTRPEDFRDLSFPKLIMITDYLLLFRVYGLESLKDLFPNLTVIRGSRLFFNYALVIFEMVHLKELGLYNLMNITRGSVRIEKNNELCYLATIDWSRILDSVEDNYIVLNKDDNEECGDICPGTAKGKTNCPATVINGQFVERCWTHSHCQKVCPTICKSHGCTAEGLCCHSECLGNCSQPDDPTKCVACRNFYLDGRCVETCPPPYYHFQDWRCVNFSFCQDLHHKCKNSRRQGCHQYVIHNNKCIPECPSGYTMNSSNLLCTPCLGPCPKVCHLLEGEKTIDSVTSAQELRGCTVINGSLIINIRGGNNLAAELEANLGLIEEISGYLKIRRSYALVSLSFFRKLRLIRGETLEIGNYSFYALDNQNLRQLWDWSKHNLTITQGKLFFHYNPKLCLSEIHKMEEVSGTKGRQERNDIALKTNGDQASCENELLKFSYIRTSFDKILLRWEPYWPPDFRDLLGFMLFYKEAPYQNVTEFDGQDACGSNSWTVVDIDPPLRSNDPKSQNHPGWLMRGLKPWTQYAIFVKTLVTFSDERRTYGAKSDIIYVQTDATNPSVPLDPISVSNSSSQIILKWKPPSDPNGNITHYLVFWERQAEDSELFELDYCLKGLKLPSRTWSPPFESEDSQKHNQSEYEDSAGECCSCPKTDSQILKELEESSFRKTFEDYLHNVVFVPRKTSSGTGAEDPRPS
Chain of Insulin receptor (P06213 763-1382 limits assumed): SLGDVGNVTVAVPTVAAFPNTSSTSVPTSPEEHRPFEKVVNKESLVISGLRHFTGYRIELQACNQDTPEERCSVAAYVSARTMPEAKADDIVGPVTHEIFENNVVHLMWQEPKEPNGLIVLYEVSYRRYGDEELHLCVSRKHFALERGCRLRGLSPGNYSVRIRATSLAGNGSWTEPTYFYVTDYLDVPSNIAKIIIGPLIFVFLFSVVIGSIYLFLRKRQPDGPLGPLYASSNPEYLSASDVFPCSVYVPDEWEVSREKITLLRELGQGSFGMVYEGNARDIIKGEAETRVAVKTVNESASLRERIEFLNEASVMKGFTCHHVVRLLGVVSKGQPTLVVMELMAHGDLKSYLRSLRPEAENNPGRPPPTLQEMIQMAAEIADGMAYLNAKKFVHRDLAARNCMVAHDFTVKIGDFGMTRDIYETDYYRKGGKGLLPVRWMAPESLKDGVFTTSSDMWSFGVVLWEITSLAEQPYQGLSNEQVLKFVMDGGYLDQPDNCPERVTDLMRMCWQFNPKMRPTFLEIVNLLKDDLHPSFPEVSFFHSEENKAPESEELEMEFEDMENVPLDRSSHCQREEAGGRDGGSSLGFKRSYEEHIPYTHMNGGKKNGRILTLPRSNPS

Row | Compound | IC50 [1] [nM] | IC50 (Insulin receptor) [nM] | IC50 [2] [nM]
1 | COc1cc(N2CCOCC2)ccc1Nc1ncc(Cl)c(N[C@@H]2CCCC[C@@H]2NS(C)(=O)=O)n1 (racemic) | 330 | 180 | 
2 | CCN([C@@H]1CCCC[C@H]1Nc1nc(Nc2cc3c(cc2OC)CCN(CCOC)CC3)ncc1Cl)S(C)(=O)=O | 20 | 430 | 150
3 | CCN1CCc2ccc(Nc3ncc(Cl)c(N[C@@H]4CCCC[C@H]4NC(=O)N(C)C)n3)cc2CC1 | 370 | 150 | 
4 | COCCN1CCc2ccc(Nc3ncc(Cl)c(N[C@H]4CC[C@@H](NS(C)(=O)=O)CC4)n3)cc2CC1 | 220 |  | 
5 | COc1cc(N2CCOCC2)ccc1Nc1ncc(Cl)c(N[C@@H]2CCCC[C@H]2NS(C)(=O)=O)n1 | 10 | 1700 | 65
6 | COc1cc(N2CCOCC2)ccc1Nc1ncc(Cl)c(N[C@H]2CCCC[C@@H]2NS(C)(=O)=O)n1 | > 10000 | 6300 | 
7 | CCN1CCc2ccc(Nc3ncc(Cl)c(N[C@@H]4CCCC[C@H]4NC(=O)C(F)(F)F)n3)cc2CC1 | 26 | 740 | 200
8 | CCN1CCc2ccc(Nc3ncc(Cl)c(N[C@@H]4CCCC[C@H]4NS(C)(=O)=O)n3)cc2CC1 | 9 | 920 | 60
9 | COCCN1CCc2ccc(Nc3ncc(Cl)c(N[C@H]4CC[C@H](NS(C)(=O)=O)CC4)n3)cc2CC1 | 100 |  | 

Further lines, results first:

Row | IC50 [1] [nM] | IC50 (Insulin receptor) [nM] | IC50 [2] [nM] | Compound
10 | 50 | 930 |  | CCS(=O)(=O)N[C@@H]1CCCC[C@H]1Nc1nc(Nc2ccc3c(c2)CCN(CCOC)CC3)ncc1Cl
11 | 9 | 540 | 73 | COCCN1CCc2ccc(Nc3ncc(Cl)c(N[C@@H]4CCCC[C@H]4NS(C)(=O)=O)n3)cc2CC1
12 | 78 | 77 |  | COCCN1CCc2ccc(Nc3ncc(Cl)c(NC4CCCCC4)n3)cc2CC1
13 | 31 | 840 | 300 | COCCN1CCc2ccc(Nc3ncc(Cl)c(N[C@@H]4CCCC[C@H]4NS(=O)(=O)CC(F)(F)F)n3)cc2CC1
14 | 680 |  |  | COCCN1CCc2ccc(Nc3ncc(Cl)c(N[C@@H]4CCCC[C@H]4N)n3)cc2CC1
15 | > 3000 |  |  | COCCN1CCc2ccc(Nc3ncc(Cl)c(N[C@@H]4CCC[C@H](NS(C)(=O)=O)C4)n3)cc2CC1 (racemic)
16 | 22 | 710 | 100 | COCCN1CCc2ccc(Nc3ncc(Cl)c(N[C@@H]4CCCC[C@H]4NC(=O)C(F)(F)F)n3)cc2CC1
17 | > 3000 |  |  | COCCN1CCc2ccc(Nc3ncc(Cl)c(N[C@@H]4CCC[C@@H](NS(C)(=O)=O)C4)n3)cc2CC1 (racemic)
18 | > 3000 |  |  | COCCN1CCc2ccc(Nc3ncc(Cl)c(N[C@@H]4CCCC[C@H]4O)n3)cc2CC1 (racemic)
19 | 110 |  |  | COCCN1CCc2ccc(Nc3ncc(Cl)c(N[C@@H]4CCCC[C@H]4NS(=O)(=O)C4CC4)n3)cc2CC1
20 | 9 | 150 | 65 | CCN1CCc2ccc(Nc3ncc(Cl)c(N[C@@H]4CCCC[C@H]4NC(C)=O)n3)cc2CC1
21 | 130 |  |  | COCCN1CCc2ccc(Nc3ncc(Cl)c(N[C@@H]4CCCC[C@H]4NS(=O)(=O)C(C)C)n3)cc2CC1

— ChEMBL document CHEMBL1795227, “Methanesulfonamido-cyclohexylamine derivatives of 2,4-diaminopyrimidine as potent ALK inhibitors” (Bioorg Med Chem Lett, 2011)
